Measurements: US9663523B2, “BET protein-inhibiting 5-aryltriazoleazepines” (BAYER PHARMA AKTIENGESELLSCHAFT, priority 2012, dated 2017)

Key:
[1] = target: BRD4(1) (amino acids 44-168) (Homo sapiens (Human), UniProt O60885); experiment: BRD4 binding strength, TR-FRET (HTRF) assay of BRD4(1) / acetylated histone H4 peptide interaction; details: inhibition of BRD4(1)/Ac-H4 peptide interaction
From the text: To assess the BRD4 binding strength of the compounds according to the invention, the ability thereof to inhibit the interaction between BRD4 and acetylated histone H4 in a dose-dependent manner was quantified. For this purpose, a time-resolved fluorescence resonance energy transfer (TR-FRET) assay was used, which measures the binding between N-terminally His6-tagged BRD4(1) (amino acids 44-168) and a synthetic acetylated histone H4 (Ac-H4) peptide with sequence […]-biotin. The recombinant BRD4 protein produced in-house according to Filippakopoulos et al., Cell, 2012, 149:214-231 was expressed in E. coli and purified by means of (Ni-NTA) affinity and (Sephadex G-75) size exclusion chromatography. The Ac-H4 peptide can be purchased, for example, from Biosyntan (Berlin, Germany). […] For this purpose, 100-fold concentrated solutions in DMSO were prepared by serial dilutions (1:3.4) of a 2 mM stock solution into a clear, 384-well microtitre plate (Greiner Bio-One, Frickenhausen, Germany). From this, 50 nl were transferred into a black test plate (Greiner Bio-One, Frickenhausen, Germany). […] This was followed by a 10-minute incubation step at 22° C. for the pre-equilibration of putative complexes between BRD4 and the substances. Subsequently, 3 μl of a solution of 1.67 times the concentration (in assay buffer) consisting of Ac-H4 peptide (83.5 nM) and TR-FRET detection reagents [16.7 nM anti-6His-XL665 and 3.34 nM streptavidin cryptate (both from Cisbio Bioassays, Codolet, France), and 668 mM potassium fluoride (KF)] were added. The mixture was then incubated in the dark at 22° C. for one hour and then at 4° C. overnight. The formation of BRD4/Ac-H4 complexes was determined by the measurement of the resonance energy transfer from the streptavidin-Eu cryptate to the anti-6His-XL665 antibody present in the reaction. […] The ratio of the emissions at 665 nm and at 622 nm was taken as an indicator of the amount of BRD4/Ac-H4 complexes formed.

[2] = test system: MOLM-13 cells; experiment: Cell proliferation (alamarBlue), MOLM-13; type: cell-based; details: Homo sapiens, acute myeloid leukaemia cell line, 96 hours incubation
Protocol: (§1) The ability of the compounds according to the invention to inhibit the proliferation of various cell lines was determined.
(§2) Cell viability was determined by means of the alamarBlue® reagent (Invitrogen). The cells were sown at different densities (MOLM-13, LAPC-4, MOLP-8 and MDA-MB-231: 4000 cells/well; B16F10: 400 cells/well) in 100 μl of growth medium on 96-well microtitre plates. After overnight incubation at 37° C., the fluorescence values (CI values) were determined. The plates were then treated with various substance dilutions and incubated at 37° C. for 96 hours (MOLM-13, MDA-MB-231 and B16F10 cells), 120 hours (MOLP-8 cells) or 168 hours (LAPC-4 cells). Subsequently, the fluorescence values were determined (CO values). For the data analysis, the CI values were subtracted from the CO values and the results were compared between cells which had been treated with various dilutions of the substance or only with buffer solution.
(§3) The compounds according to the invention were tested in the cell lines in Table 2, which represent the indications specified by way of example:
(§4) The indications corresponding to the different cell lines can be found in Table 2.

[3] = test system: MOLP-8 cells; experiment: Cell proliferation (alamarBlue), MOLP-8; type: cell-based; details: Homo sapiens, multiple myeloma cell line, 120 hours incubation
Protocol: as §1
as §2, with “values).” for “values). For the data analysis, the CI values were subtracted from the CO values and the results were compared between cells which had been treated with various dilutions of the substance or only with buffer solution.”
as §3, §4

[4] = test system: B16F10 cells; experiment: Cell proliferation (alamarBlue), B16F10; type: cell-based; details: Mus musculus, B16-F10; melanoma cell line, 96 hours incubation
Protocol: as §1, §2, §3, §4

In the case of CC(=O)NNC(=O)CC1C=C(c2ccc(Cl)cc2)c2ccccc2-n2c(C)nnc21 (stereo in doubt) [Example 40, N′-acetyl-2-[(4R)-6-(4-chlorophenyl)-1-methyl-4H-[1,2,4]triazolo[4,3-a][1]benzazepin-4-yl]acetohydrazide], the IC50 [1] is reported as 40 nM, the IC50 [2] is reported as 170 nM and the IC50 [3] is reported as 80 nM.
For Cc1nnc(CC2C=C(c3ccc(Cl)cc3)c3ccccc3-n3c(C)nnc32)s1 (stereo in doubt) [Example 42, (+)-(4R)-6-(4-chlorophenyl)-1-methyl-4-[(5-methyl-1,3,4-thiadiazol-2-yl)methyl]-4H-[1,2,4]triazolo[4,3-a][1]benzazepine], the IC50 [1] was 50 nM, the IC50 [2] was 170 nM and the IC50 [4] was 140 nM. The IC50 [3] was 110 nM.
Cc1nnc2n1-c1ccc(OC(F)(F)F)cc1C(c1ccc(Cl)cc1)=CC2CC(=O)OC(C)(C)C (stereo in doubt) [Example 50, tert-butyl (−)-[(4R)-6-(4-chlorophenyl)-1-methyl-8-(trifluoromethoxy)-4H-[1,2,4]triazolo[4,3-a][1]benzazepin-4-yl]acetate] showed an IC50 [1] of 790 nM, an IC50 [2] of 880 nM and an IC50 [4] of 1170 nM. For the same molecule, the IC50 [3] was 1050 nM.
Cc1nnc(CC2C=C(c3ccc(Cl)cc3)c3ccccc3-n3c(C)nnc32)s1 (centres unmarked) [Example 41, 6-(4-chlorophenyl)-1-methyl-4-[(5-methyl-1,3,4-thiadiazol-2-yl)methyl]-4H-[1,2,4]triazolo[4,3-a][1]benzazepine] showed an IC50 [1] of 100 nM, an IC50 [2] of 720 nM and an IC50 [3] of 410 nM.
Cc1nnc2n1-c1ccccc1C(c1ccc(Cl)cc1)=CC2Cc1nnc(C2CC2)o1 (centres unmarked) [Example 43, 6-(4-chlorophenyl)-4-[(5-cyclopropyl-1,3,4-oxadiazol-2-yl)methyl]-1-methyl-4H-[1,2,4]triazolo[4,3-a][1]benzazepine] was tested, and the IC50 [1] was 130 nM, the IC50 [2] was 370 nM and the IC50 [3] was 210 nM.
Cc1nnc2n1-c1ccccc1C(c1ccc(Cl)cc1)=CC2Cc1nnc(-c2cccnc2)o1 (centres unmarked) [Example 44, 6-(4-chlorophenyl)-1-methyl-4-{[5-(pyridin-3-yl)-1,3,4-oxadiazol-2-yl]methyl}-4H-[1,2,4]triazolo[4,3-a][1]benzazepine] showed an IC50 [1] of 90 nM, an IC50 [2] of 420 nM and an IC50 [3] of 220 nM.
With Cc1nc(CC2C=C(c3ccc(Cl)cc3)c3ccccc3-n3c(C)nnc32)no1 (centres unmarked) [Example 46, 6-(4-chlorophenyl)-1-methyl-4-[(5-methyl-1,2,4-oxadiazol-3-yl)methyl]-4H-[1,2,4]triazolo[4,3-a][1]benzazepine] the IC50 [1] was 80 nM, the IC50 [2] was 270 nM and the IC50 [3] was 140 nM.
COc1ccc2c(c1)C(c1ccc(Cl)cc1)=CC(Cc1nnc(C)o1)c1nnc(C)n1-2 (centres unmarked) [Example 47, 6-(4-chlorophenyl)-8-methoxy-1-methyl-4-[(5-methyl-1,3,4-oxadiazol-2-yl)methyl]-4H-[1,2,4]triazolo[4,3-a][1]benzazepine] was tested, and the IC50 [1] was 50 nM, the IC50 [2] was 150 nM and the IC50 [3] was 90 nM.
Cc1nnc(CC2C=C(c3ccc(Cl)cc3)c3cc(-c4c(C)noc4C)ccc3-n3c(C)nnc32)o1 (centres unmarked) [Example 48, 6-(4-chlorophenyl)-8-(3,5-dimethyl-1,2-oxazol-4-yl)-1-methyl-4-[(5-methyl-1,3,4-oxadiazol-2-yl)methyl]-4H-[1,2,4]triazolo[4,3-a][1]benzazepine] was tested, and the IC50 [1] was 340 nM, the IC50 [2] was 1380 nM and the IC50 [3] was 1620 nM.
Cc1nnc2n1-c1ccc(OC(F)(F)F)cc1C(c1ccc(Cl)cc1)=CC2CC(=O)OC(C)(C)C (centres unmarked) [Example 49, tert-butyl [6-(4-chlorophenyl)-1-methyl-8-(trifluoromethoxy)-4H-[1,2,4]triazolo[4,3-a][1]benzazepin-4-yl]acetate] showed an IC50 [2] of 1690 nM, an IC50 [4] of 2200 nM and an IC50 [3] of 1890 nM.
Cc1nnc2n1-c1ccc(OC(F)(F)F)cc1C(c1ccc(Cl)cc1)=C[C@H]2CC(=O)N1CC2(COC2)C1 [Example 51] showed an IC50 [2] of 390 nM, an IC50 [4] of 580 nM and an IC50 [3] of 360 nM.
